PMC9358669, “Native metabolomics identifies the rivulariapeptolide family of protease inhibitors” (Nature Communications, 2022)
pIC50: −log10 of the molar value. Read-outs that look alike come from different tables or passages of the source.

Key:
[1] = target: T1, Chymotrypsin (Bos taurus, UniProt P00766); experiment: Chymotrypsin inhibition, fluorogenic substrate assay (Suc-Ala-Ala-Pro-Phe-AMC); format: biochemical; settings: for Mean (RFU/s): Chymotrypsin
T1 construct: purchased Sigma-Aldrich

[2] = target: T2, Proteinase K (Parengyodontium album, UniProt P06873); experiment: Proteinase K inhibition, fluorogenic substrate assay (Suc-Ala-Ala-Pro-Phe-AMC); format: biochemical, Tritirachium album; settings: 40 min pre-incubation; for pIC50: mean, n = 3; for Mean (RFU/s): Proteinase K
T2 construct: purchased Roche

[3] = target: T3, Elastase (Sus scrofa, UniProt P00772); experiment: Elastase inhibition, fluorogenic substrate assay (MeOSuc-Ala-Ala-Pro-Val-AMC); format: biochemical, Sus domesticus; settings: 40 min pre-incubation; for pIC50: mean, n = 3; for Mean (RFU/s): Elastase
T3 construct: purchased Sigma-Aldrich

[4] = 40 min pre-incubation, mean, n = 3, read-out: IC50 Chymotrypsin
[5] = inhibitor concentration 0.0508053 nM, 40 min pre-incubation
[6] = inhibitor concentration 0.152416 nM, 40 min pre-incubation
[7] = inhibitor concentration 0.457247 nM, 40 min pre-incubation
[8] = inhibitor concentration 1.37174 nM, 40 min pre-incubation
[9] = inhibitor concentration 4.11523 nM, 40 min pre-incubation
[10] = inhibitor concentration 12.3457 nM, 40 min pre-incubation
[11] = inhibitor concentration 37.037 nM, 40 min pre-incubation
[12] = inhibitor concentration 111.111 nM, 40 min pre-incubation
[13] = inhibitor concentration 333.333 nM, 40 min pre-incubation
[14] = inhibitor concentration 1000 nM, 40 min pre-incubation
[15] = inhibitor concentration 3000 nM, 40 min pre-incubation
[16] = Supplementary Table 5, compounds of this study, read-out: Chymotrypsin IC50
[17] = inhibitor concentration 0.0508053 nM
[18] = inhibitor concentration 0.152416 nM
[19] = inhibitor concentration 0.457247 nM
[20] = inhibitor concentration 1.37174 nM
[21] = inhibitor concentration 4.11523 nM
[22] = inhibitor concentration 12.3457 nM
[23] = inhibitor concentration 37.037 nM
[24] = inhibitor concentration 111.111 nM
[25] = inhibitor concentration 333.333 nM
[26] = inhibitor concentration 1000 nM
[27] = inhibitor concentration 3000 nM

T3 sequence (P00772 27-266): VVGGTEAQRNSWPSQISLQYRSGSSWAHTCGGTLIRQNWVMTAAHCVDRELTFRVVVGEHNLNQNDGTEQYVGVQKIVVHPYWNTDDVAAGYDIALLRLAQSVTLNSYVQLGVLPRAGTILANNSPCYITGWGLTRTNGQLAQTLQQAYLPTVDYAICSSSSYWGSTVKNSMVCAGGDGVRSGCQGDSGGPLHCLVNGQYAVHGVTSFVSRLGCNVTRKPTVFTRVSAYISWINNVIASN
T2 sequence (P06873 106-384): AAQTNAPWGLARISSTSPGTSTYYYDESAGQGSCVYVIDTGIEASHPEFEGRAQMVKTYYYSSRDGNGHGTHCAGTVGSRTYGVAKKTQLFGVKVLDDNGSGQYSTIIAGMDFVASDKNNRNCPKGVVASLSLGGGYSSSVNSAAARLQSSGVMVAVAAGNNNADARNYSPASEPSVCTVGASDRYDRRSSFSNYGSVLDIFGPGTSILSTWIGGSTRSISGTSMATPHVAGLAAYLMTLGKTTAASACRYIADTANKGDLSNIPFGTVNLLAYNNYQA

SMILES | pIC50 [1, 4] | Mean (RFU/s) [1, 5] | Mean (RFU/s) [1, 6] | Mean (RFU/s) [1, 7] | Mean (RFU/s) [1, 8] | Mean (RFU/s) [1, 9] | Mean (RFU/s) [1, 10] | Mean (RFU/s) [1, 11] | Mean (RFU/s) [1, 12] | Mean (RFU/s) [1, 13] | Mean (RFU/s) [1, 14] | Mean (RFU/s) [1, 15] | pIC50 [1, 16] | pIC50 [2] | Mean (RFU/s) [2, 17] | Mean (RFU/s) [2, 18] | Mean (RFU/s) [2, 19] | Mean (RFU/s) [2, 20] | Mean (RFU/s) [2, 21] | Mean (RFU/s) [2, 22] | other results
CC=C1NC(=O)[C@@H](NC(=O)[C@@H](NC(=O)[C@@H]2CCCN2C(=O)CCC)[C@@H](C)O)[C@@H](C)OC(=O)[C@H](C(C)C)NC(=O)[C@H](Cc2ccc(O)cc2)N(C)C(=O)[C@H](Cc2ccccc2)N2C(=O)[C@H](CC[C@H]2O)NC1=O [Rivulariapeptolide 988, rivulariapeptolide 988] | 7.02 | 4.956 RFU/s | 4.945 RFU/s | 5.008 RFU/s | 5.099 RFU/s | 4.694 RFU/s | 4.587 RFU/s | 3.41 RFU/s | 2.381 RFU/s | 1.135 RFU/s | 0.4203 RFU/s | 0.1363 RFU/s | 7.02 | 7.07 | 6.083 RFU/s | 6.104 RFU/s | 6.172 RFU/s | 5.959 RFU/s | 5.86 RFU/s | 5.64 RFU/s | Mean (RFU/s) [2, 23]: 4.799 RFU/s; Mean (RFU/s) [2, 24]: 2.395 RFU/s; Mean (RFU/s) [2, 25]: 0.4403 RFU/s; Mean (RFU/s) [2, 26]: 0.07367 RFU/s; Mean (RFU/s) [2, 27]: 0.022 RFU/s; pIC50 [3]: 7.82; Mean (RFU/s) [3, 17]: 0.804 RFU/s; Mean (RFU/s) [3, 18]: 0.8127 RFU/s; Mean (RFU/s) [3, 19]: 0.808 RFU/s; Mean (RFU/s) [3, 20]: 0.7693 RFU/s; Mean (RFU/s) [3, 21]: 0.661 RFU/s; Mean (RFU/s) [3, 22]: 0.463 RFU/s; Mean (RFU/s) [3, 23]: 0.2057 RFU/s; Mean (RFU/s) [3, 24]: 0.065 RFU/s; Mean (RFU/s) [3, 25]: 0.018 RFU/s; Mean (RFU/s) [3, 26]: 0 RFU/s; Mean (RFU/s) [3, 27]: 0 RFU/s
CC=C1NC(=O)[C@@H](NC(=O)[C@@H](NC(=O)[C@@H]2CCCN2C(=O)CCC)[C@@H](C)OC(=O)C2CCCN2C(=O)CCC)[C@@H](C)OC(=O)[C@H](C(C)C)NC(=O)[C@H](Cc2ccc(O)cc2)N(C)C(=O)[C@H](CC(C)C)N2C(=O)[C@H](CC[C@H]2O)NC1=O (some centres unmarked) [Rivulariapeptolide 1121, rivulariapeptolide 1121] | 7.45 | 4.522 RFU/s | 4.745 RFU/s | 4.969 RFU/s | 4.65 RFU/s | 4.6 RFU/s | 4.156 RFU/s | 1.852 RFU/s | 1.527 RFU/s | 0.623 RFU/s | 0.1967 RFU/s | 0 RFU/s | 7.45 | 7.32 | 6.561 RFU/s | 6.281 RFU/s | 6.268 RFU/s | 6.292 RFU/s | 6.214 RFU/s | 5.471 RFU/s | Mean (RFU/s) [2, 23]: 4.069 RFU/s; Mean (RFU/s) [2, 24]: 0.93 RFU/s; Mean (RFU/s) [2, 25]: 0.1023 RFU/s; Mean (RFU/s) [2, 26]: 0 RFU/s; Mean (RFU/s) [2, 27]: 0 RFU/s; pIC50 [3]: 7.88; Mean (RFU/s) [3, 17]: 0.8433 RFU/s; Mean (RFU/s) [3, 18]: 0.7923 RFU/s; Mean (RFU/s) [3, 19]: 0.7877 RFU/s; Mean (RFU/s) [3, 20]: 0.7943 RFU/s; Mean (RFU/s) [3, 21]: 0.7343 RFU/s; Mean (RFU/s) [3, 22]: 0.4323 RFU/s; Mean (RFU/s) [3, 23]: 0.094 RFU/s; Mean (RFU/s) [3, 24]: 0.02167 RFU/s; Mean (RFU/s) [3, 25]: 0 RFU/s; Mean (RFU/s) [3, 26]: 0 RFU/s; Mean (RFU/s) [3, 27]: 0 RFU/s
